Five compounds from ChEMBL document CHEMBL4145458, “Natural compounds and combination therapy in colorectal cancer treatment” (2018) can be followed below.

What all share (assay type): functional
The nature of experiment [1]: Antitumor activity against human TC118 cells xenografted in Swiss nu/nu mouse assessed as tumor growth inhibition at 150 mg/kg, ip qd for 5 days in presence of 5-FU. Conditions: 120 h, read-out: TGI. (In xenograft studies the graft and the host belong to different species.)
Experiment [2] relates to Homo sapiens. Description: Reduction in tumor cell proliferation in colorectal cancer patient at 0.5 to 1 g/day, po administered 8 times per day for 8 days by Ki-67 staining-based microscopic method relative to control. Set-up: scale not given: the % may be the effect or the level left.
Experiment [3] relates to Homo sapiens. Kind of experiment: Upregulation of cleaved caspase-3 levels in malignant hepatic tissue of cancer patient at 5 g/day, po administered for 10 to 21 days by immunohistochemistry relative to control.
In experiment [4] the test system is Homo sapiens. Kind of experiment: Reduction in aberrant crypt foci number in colorectal cancer patient at 4 g/day, po administered 30 days relative to control. Set-up: scale not given: the % may be the effect or the level left.
Experiment [5] relates to Homo sapiens. Description: Induction of apoptosis in tumor of colorectal cancer patient at 200 mg/day, po administered for 14 days relative to control.
Experiment [6] has as its system CT26. Kind of experiment: Antitumor activity against mouse CT26 cells implanted in BALB/c mouse at 1 mg/kg, po qd administered through oral gavage for 15 days in presence of cisplatin relative to control.

With `CC(C)=CCC/C(C)=C/CO` [GERANIOL], the inhibition in vivo at 150 mg/kg in experiment [1] is ≤ 83%. With `Oc1ccc(/C=C/c2cc(O)cc(O)c2)cc1` [RESVERATROL], the Activity in experiment [2] stood at 5%; in experiment [3], 39%. In experiment [4], `COc1cc(/C=C/C(=O)CC(=O)/C=C/c2ccc(O)c(OC)c2)ccc1O` [CURCUMIN] yielded an Activity of 40%.

As to `C[C@H]1[C@H](OC(=O)CCC(=O)O)O[C@@H]2O[C@@]3(C)CC[C@H]4[C@H](C)CC[C@@H]1[C@@]24OO3` [ARTESUNATE], the Activity in experiment [5] was determined as 13%. Take `O=C(/C=C/c1ccc(O)cc1)c1ccc(O)cc1O` [ISOLIQUIRITIGENIN]: the Activity in experiment [6] is reported as 79%.
